Measured values as given in patent US20230157975A1, “TREATMENT OF PULMONARY FIBROSIS” (REGENALL LIMITED, priority 2020, published 2023).

Columns and labels:
[1] = test system: Tendon injury; test: Tendon injury, recovery following treatment with Vitamin A (Example 3); type: in vivo; conditions: Horse subject 1 (polo pony); oral 750,000 IU twice daily, at least 4 weeks; started approximately 20 days after injury
Text: [table] Treatment with Vitamin A was initiated approximately 20 days after the initial injury. Retinyl palmitate (93.8% Retinol Equivalent) Oral 750,000 IU Twice daily (1,500,000 IU per day) Continuing (at least 4 weeks)

[2] = test system: bleomycin-induced lung fibrosis; conditions: rats; by downregulating the TGF-β1/Smad3 signalling pathway; cited from earlier work

Structure (SMILES) | Functional recovery [1] | Size of the lesion by ultrasonography [1] | Effect on bleomycin-induced lung fibrosis [2]
CCCCCCCCCCCCCCCC(=O)OC/C=C(C)/C=C/C=C(C)/C=C/C1=C(C)CCCC1(C)C [Vitamin A, Retinyl palmitate] | good | good reduction in the size of the lesion | 
CC1=C(/C=C/C(C)=C/C=C/C(C)=C/C(=O)O)C(C)(C)CCC1 [RA] |  |  | ameliorates bleomycin-induced lung fibrosis
